Consider ten molecules from ChEMBL document CHEMBL1201862, “PubChem BioAssay data set” (2004).

Counter-ions that a name gives are not always drawn.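 These data come from cells grown in 96-well plates and exposed to compound for 48 hours at five concentrations. Abbreviation: GI50, concentration required for 50% inhibition of growth.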 The source made the active and inactive calls. Cut-off read from the data, not from the text of the source: active = GI50 up to about 1.1 µM and inactive = higher.

Test systems include CAKI-1; MDA-MB-435; MDA-N; UACC-257; OVCAR-3; HL-60; SF-268; HCT-15; DU-145; NCI-H226; MCF7; HT-29; NCI-H460; SNB-75; UACC-62; SK-OV-3; SK-MEL-5; OVCAR-8; SK-MEL-28; RPMI-8226.
Common to all, as to assay: NCI-60 cell line screen, 48 h

Regarding `O=C(Nc1cccc(-c2cn3ccccc3n2)c1)c1ccncc1`, the GI50 is 31.3 µM (inactive) in the assay with CAKI-1; 31.9 µM (inactive) with MDA-MB-435; 31.3 µM (inactive) in the assay with MDA-N; 29.9 µM (inactive) in the assay with UACC-257; 35.1 µM (inactive) in the assay with OVCAR-3; 20.1 µM (inactive) with HL-60. Moreover, the GI50 in the assay on SF-268 is 41.4 µM (inactive); in the assay with HCT-15 it was 24.2 µM; with DU-145 it was 49.4 µM (inactive); in the assay with NCI-H226, 56.5 µM (inactive); with MCF7 it was 31.6 µM (inactive); in the assay with HT-29, 35.8 µM (inactive). For the same molecule, the GI50 in the assay with NCI-H460 is 16.1 µM (inactive); in the assay on SNB-75, 46.1 µM (inactive); in the assay with UACC-62, 20.9 µM (inactive); in the assay on SK-OV-3 it was 70.8 µM (inactive); in the assay on SK-MEL-5, 24.3 µM (inactive); in the assay on OVCAR-8 it was 34 µM (inactive). Further, the GI50 in the assay with SK-MEL-28 is 48.5 µM (inactive); in the assay with RPMI-8226, 17.1 µM (inactive).

Turning to `C/C(=N\NC(=[Se])N1CCN(c2ccccn2)CC1)c1ccccn1`, the GI50 with CAKI-1 is 2.65 µM (inactive); in the assay on MDA-MB-435, 2.06 µM (inactive); in the assay with MDA-N, 2.99 µM (inactive); with UACC-257, 0.01 µM (active); with OVCAR-3, 0.01 µM (active); with HL-60, 0.0432 µM (active). For the same molecule, the GI50 in the assay with SF-268 was 3.21 µM (inactive); with HCT-15 it was 0.01 µM; in the assay on DU-145, 5.14 µM (inactive); in the assay on NCI-H226 it was 0.912 µM (active); with MCF7, 0.01 µM (active); in the assay on HT-29 it was 0.01 µM (active). In addition, the GI50 was 0.0269 µM (active) in the assay with NCI-H460; 4.7 µM (inactive) with SNB-75; 1.41 µM (inactive) with UACC-62; 2.75 µM (inactive) with SK-OV-3; 0.0475 µM (active) with SK-MEL-5; 0.01 µM (active) in the assay on OVCAR-8. Also, the values for the GI50 in the assay with SK-MEL-28 and in the assay on RPMI-8226 were 10 µM (inactive) and 0.036 µM (active), respectively.

Turning to `CC12CCCC(C(=O)O)(C1)[C@H](C(C)(C)C(=O)O)CC2` (some centres not stated), the GI50 in the assay with CAKI-1, in the assay with MDA-MB-435, in the assay with MDA-N, in the assay on UACC-257, with OVCAR-3 and in the assay on HL-60 was > 100 µM (inactive) each time. The GI50 in the assay on SF-268 is > 100 µM (inactive); with HCT-15 it was more than 100 µM; with DU-145, > 100 µM (inactive); in the assay on NCI-H226, > 100 µM (inactive); with MCF7, > 100 µM (inactive); in the assay with HT-29, > 100 µM (inactive). Also, the GI50 in the assay on NCI-H460, in the assay on SNB-75, in the assay with UACC-62, in the assay on SK-OV-3, with SK-MEL-5 and with OVCAR-8 was > 100 µM (inactive) each time. Besides, the GI50 with SK-MEL-28 and with RPMI-8226 was > 100 µM (inactive) throughout.

For `CN1C(=O)C(O)C[C@@H]1c1ccccc1` (some centres not stated), the GI50 in the assay with CAKI-1, in the assay on MDA-MB-435, in the assay with MDA-N, with UACC-257, with OVCAR-3 and with HL-60 was > 100 µM (inactive) throughout. Further, the GI50 in the assay with SF-268 is > 100 µM (inactive); with HCT-15, more than 100 µM; in the assay on DU-145 it was > 100 µM (inactive); with NCI-H226 it was > 100 µM (inactive); in the assay on MCF7, > 100 µM (inactive); in the assay on HT-29 it was > 100 µM (inactive). Further, the GI50 in the assay on SNB-75, with UACC-62, in the assay with SK-OV-3, in the assay with SK-MEL-5, with OVCAR-8 and with SK-MEL-28 was > 100 µM (inactive) each time. In the assay with RPMI-8226, the GI50 is > 100 µM (inactive).

With `NCCSSCCN` [CYSTAMINE HYDROCHLORIDE], the GI50 in the assay on CAKI-1, in the assay with MDA-MB-435, in the assay on MDA-N, in the assay with OVCAR-3, in the assay with HL-60 and in the assay with SF-268 was > 100 µM (inactive) in each case. The GI50 was more than 100 µM in the assay on HCT-15; > 100 µM (inactive) in the assay with DU-145; > 100 µM (inactive) in the assay with NCI-H226; > 100 µM (inactive) in the assay with MCF7; > 100 µM (inactive) with HT-29; > 100 µM (inactive) in the assay with NCI-H460. For the same molecule, the GI50 in the assay with SNB-75, in the assay on UACC-62, in the assay on SK-OV-3, in the assay with SK-MEL-5, with OVCAR-8 and in the assay on SK-MEL-28 was > 100 µM (inactive) throughout. For the same molecule, the GI50 with RPMI-8226 is > 100 µM (inactive).

With `CCCCCCCCCCCCCC(=O)OC(/C=C/C(C)C)C(O)C(O)C(OC)C(=O)NC1CCCCN(C)C1=O` (configuration not stated), the GI50 with CAKI-1 was 1.19 µM (inactive); in the assay with MDA-MB-435, 5.25 µM (inactive); in the assay with MDA-N it was > 10 µM (inactive); in the assay on UACC-257, 4.84 µM (inactive); with OVCAR-3, 5.12 µM (inactive); in the assay on HL-60, 1.74 µM (inactive). In addition, the GI50 in the assay with SF-268 was 5.27 µM (inactive); in the assay on HCT-15, 6 µM; in the assay on DU-145, > 10 µM (inactive); in the assay on NCI-H226, 4.85 µM (inactive); with MCF7, 1.93 µM (inactive); in the assay with HT-29 it was 6.3 µM (inactive). Further, the GI50 was 0.687 µM (active) with NCI-H460; 7.94 µM (inactive) with SNB-75; 3.21 µM (inactive) in the assay on UACC-62; 4.49 µM (inactive) with SK-OV-3; 3.19 µM (inactive) with SK-MEL-5; 5.28 µM (inactive) in the assay on OVCAR-8. For the same molecule, the results for the GI50 in the assay with SK-MEL-28 and in the assay with RPMI-8226 were 3.61 µM (inactive) and 2.07 µM (inactive), respectively.

For `CCOP(=O)(OCC)C(Nc1ccc(F)cc1)c1cccc([N+](=O)[O-])c1` (configuration not stated), the GI50 with CAKI-1 is > 100 µM (inactive); in the assay with MDA-MB-435, > 100 µM (inactive); with MDA-N it was > 100 µM (inactive); in the assay on UACC-257, > 100 µM (inactive); in the assay on OVCAR-3 it was > 100 µM (inactive); in the assay with HL-60, 41.3 µM (inactive). The GI50 in the assay on SF-268 is > 100 µM (inactive); with HCT-15, 83.8 µM; in the assay on DU-145, > 100 µM (inactive); with NCI-H226, > 100 µM (inactive); with MCF7, > 100 µM (inactive); with HT-29, 74.6 µM (inactive). The GI50 with NCI-H460 is 65.9 µM (inactive); with SNB-75 it was > 100 µM (inactive); with UACC-62, 54.8 µM (inactive); in the assay with SK-OV-3, > 100 µM (inactive); with SK-MEL-5, 83.9 µM (inactive); in the assay on OVCAR-8, 97.9 µM (inactive). For the same molecule, the GI50 with SK-MEL-28 is > 100 µM (inactive); with RPMI-8226, 76.9 µM (inactive).

Regarding `O=C(CCCn1ccnc1[N+](=O)[O-])NCCn1ccnc1[N+](=O)[O-]`, the GI50 in the assay on CAKI-1, with MDA-MB-435, in the assay with MDA-N, with UACC-257, in the assay with OVCAR-3 and in the assay with HL-60 was > 100 µM (inactive) in each case. In addition, the GI50 in the assay on SF-268 was > 100 µM (inactive); in the assay with HCT-15, more than 100 µM; in the assay with DU-145 it was > 100 µM (inactive); in the assay with NCI-H226, > 100 µM (inactive); in the assay with MCF7, > 100 µM (inactive); with HT-29, > 100 µM (inactive). For the same molecule, the GI50 in the assay with NCI-H460, in the assay with SNB-75, in the assay on UACC-62, in the assay on SK-OV-3, in the assay with SK-MEL-5 and in the assay with OVCAR-8 was > 100 µM (inactive) each time. Besides, the GI50 in the assay with SK-MEL-28 and with RPMI-8226 was > 100 µM (inactive) each time.

With `CCOP(=O)(OCC)C(C)(C)OC(=O)NC(F)(F)F`, the GI50 in the assay on CAKI-1, in the assay on MDA-MB-435, with MDA-N, with UACC-257, in the assay with OVCAR-3 and in the assay on HL-60 was > 100 µM (inactive) throughout. For the same molecule, the GI50 in the assay on SF-268 was > 100 µM (inactive); in the assay with HCT-15, more than 100 µM; with DU-145, > 100 µM (inactive); with NCI-H226, 12.7 µM (inactive); with MCF7, > 100 µM (inactive); in the assay with HT-29 it was > 100 µM (inactive). The GI50 with NCI-H460, with SNB-75, in the assay on UACC-62, with SK-OV-3, in the assay on SK-MEL-5 and with OVCAR-8 was > 100 µM (inactive) throughout. Moreover, the GI50 with SK-MEL-28 and in the assay with RPMI-8226 was > 100 µM (inactive) throughout.

On to `CCOC(=O)C(=CNc1ccc(F)c(F)c1)C(=O)OCC`, for which the GI50 with CAKI-1 was > 100 µM (inactive); in the assay on MDA-MB-435, > 100 µM (inactive); in the assay with MDA-N, 93.1 µM (inactive); with UACC-257, > 100 µM (inactive); in the assay with OVCAR-3 it was > 100 µM (inactive); in the assay with HL-60, 66.1 µM (inactive). Moreover, the GI50 in the assay on SF-268 was > 100 µM (inactive); in the assay on HCT-15, 88.3 µM; in the assay with DU-145, > 100 µM (inactive); with NCI-H226, > 100 µM (inactive); with MCF7, > 100 µM (inactive); in the assay on HT-29, 94 µM (inactive). For the same molecule, the GI50 with NCI-H460, in the assay on SNB-75, in the assay on SK-OV-3, in the assay with SK-MEL-5, in the assay on OVCAR-8 and in the assay on SK-MEL-28 was > 100 µM (inactive) in each case. In the assay on RPMI-8226, the GI50 was 64.1 µM (inactive).
